Assay results: patent US9073895B2 (Boehringer Ingelheim International GmbH, priority 2010, dated 2015)

Columns and labels:
[1] = tested on: synthesis of LTB4 in human whole blood; assay: Human whole blood LTB4 production inhibition assay; type: cell-based; settings: heparinized human whole blood, calcimycin 20 μM, plasma LTB4; read-out: HuWB IC50
How it was run: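 Readout: plasma LTB4 by antibody-based HTRF. Compound added to heparinized human whole blood, 15 min 37° C; calcimycin 20 μM final (PBS pH 7.4), 30 min 37° C; spun 1500×g 5 min, plasma taken.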

[2] = biological target: T1, recombinant human FLAP protein (Homo sapiens, UniProt P20292); assay: FLAP binding assay (SPA, displacement of [125I]L-691,831); settings: membranes of sf9 cells expressing human FLAP, [125I]L-691,831 probe; read-out: hFLAP binding IC50
T1 construct: made in house; host or cells: Sf9 insect cells (membrane fraction, 100,000 x g pellet)
T1 sequence (P20292 1-161): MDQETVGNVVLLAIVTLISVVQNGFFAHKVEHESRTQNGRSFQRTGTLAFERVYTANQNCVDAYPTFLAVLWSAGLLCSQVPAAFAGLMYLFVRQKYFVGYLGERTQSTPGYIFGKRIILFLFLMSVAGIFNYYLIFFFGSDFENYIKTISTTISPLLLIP
How it was run: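 Membranes from sf9 cells expressing human FLAP (5 μg/well) were bound to WGA SPA beads (200 μg/well). Nonspecific binding was defined with 10 μM unlabelled L-691,831.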

| Compound | IC50 [1] | IC50 [2] |
| --- | --- | --- |
| Nc1ncc(-c2ccc(C3(C(=O)Nc4ccc(S(=O)(=O)N5CCOCC5)cc4)CCC3)cc2)cn1 [Example 88, 1-[4-(2-aminopyrimidin-5-yl)phenyl]-N-[4-(mopholin-4-ylsulfonyl)phenyl]cyclobutane-carboxamide] | 0.278 µM | 0.00565 µM |
| CS(=O)(=O)c1ccc(NC(=O)C2(c3ccc(-c4cnc(N)nc4)cc3)CCC2)cn1 [Example 89, 1-[4-(2-aminopyrimidin-5-yl)phenyl]-N-[6-(methylsulfonyl)pyridin-3-yl]cyclobutanecarboxamide] | 0.203 µM | 0.00813 µM |
| Cc1nc(-c2ccc(NC(=O)C(c3ccc(-c4cnc(N)nc4)cc3)C(C)(C)C)nc2)cs1 (stereo not shown) [Example 90, 2-[4-(2-aminopyrimidin-5-yl)phenyl]-3,3-dimethyl-N-[5-(2-methyl-1,3-thiazol-4-yl)pyridin-2-yl]butanamide] | 2.08 µM | 0.0315 µM |
| N#Cc1ccc(NC(=O)C2(c3ccc(-c4cnc(N)nc4)nc3)CCC2)cc1Cl [Example 91, 1-[6-(2-aminopyrimidin-5-yl)pyridin-3-yl]-N-(3-chloro-4-cyanophenyl)cyclobutane-carboxamide] | 0.24 µM | 0.00545 µM |
| Nc1ncc(-c2ccc(C3(C(=O)Nc4ccc5ncsc5c4)CCC3)cn2)cn1 [Example 92, 1-[6-(2-aminopyrimidin-5-yl)pyridin-3-yl]-N-(1,3-benzothiazol-6-yl)cyclobutanecarboxamide] | 0.718 µM | 0.0155 µM |
| NC(=O)c1ccc(NC(=O)C2(c3ccc(-c4cnc(N)nc4)cc3)CCC2)nc1 [Example 93, 6-[({1-[4-(2-aminopyrimidin-5-yl)phenyl]cyclobutyl}carbonyl)amino]pyridine-3-carboxamide] | 0.312 µM | 0.00205 µM |
| N#Cc1ccc(NC(=O)C2(c3ccc(-c4cnc(N)nc4)nc3)CCC2)nc1 [Example 94, 1-[6-(2-aminopyrimidin-5-yl)pyridin-3-yl]-N-(5-cyanopyridin-2-yl)cyclobutanecarboxamide] | 0.857 µM | 0.065 µM |
| COC(=O)c1ccc(NC(=O)C2(c3ccc(-c4cnc(N)nc4)cc3)CCC2)nc1 [Example 95, methyl 6-[({1-[4-(2-aminopyrimidin-5-yl)phenyl]cyclobuyl}carbonyl)amino]pyridine-3-carboxylate] | 0.203 µM | 0.00235 µM |
| COC(=O)c1cc(NC(=O)C2(c3ccc(-c4cnc(N)nc4)cc3)CCC2)ccc1O [Example 97, methyl 5-[({1-[4-(2-aminopyrimidin-5-yl)phenyl]cyclobutyl}carbonyl)amino]-2-hydroxybenzoate] | 4.1 µM | 0.00485 µM |
| N#Cc1ccc(NC(=O)C2(c3ccc(-c4cnc(N)nc4)nc3)CCC2)cc1 [Example 98, 1-[6-(2-aminopyrimidin-5-yl)pyridin-3-yl]-N-(4-cyanophenyl)cyclobutane-carboxamide] | 0.236 µM | 0.0122 µM |
| CS(=O)(=O)c1ccc(NC(=O)C2(c3ccc(-c4cnc(N)nc4)nc3)CCC2)cc1 [Example 99, 1-[6-(2-aminopyrimidin-5-yl)pyridin-3-yl]-N-[4-(methylsulfonyl)phenyl]cyclobutane-carboxamide] | 0.57 µM | 0.0455 µM |
| Cc1noc(-c2ccc(NC(=O)C3(c4ccc(-c5cnc(N)nc5)cc4)CCC3)nc2)n1 [Example 100, 1-[4-(2-aminopyrimidin-5-yl)phenyl]-N-[5-(3-methyl-1,2,4-oxadiazol-5-yl)pyridin-2-yl]cyclobutanecarboxamide] | 0.184 µM | 0.00185 µM |
| Nc1ncc(-c2ccc(C3(C(=O)Nc4ccc(-c5ncn[nH]5)cn4)CCC3)cc2)cn1 [Example 102, 1-[4-(2-aminopyrimidin-5-yl)phenyl]-N-[5-(1H-1,2,4-triazol-5-yl)pyridin-2-yl]cyclobutanecarboxamide] | 0.33 µM | 0.00205 µM |
| Cn1ncnc1-c1ccc(NC(=O)C2(c3ccc(-c4cnc(N)nc4)cc3)CCC2)nc1 [Example 103, 1-[4-(2-aminopyrimidin-5-yl)phenyl]-N-[5-(1-methyl-1H-1,2,4-triazol-5-yl)pyridin-2-yl]cyclobutanecarboxamide] | 0.102 µM | 0.0041 µM |
| Nc1ncc(-c2ccc(C3(C(=O)Nc4ccc(-c5cn[nH]c5)cn4)CCC3)cc2)cn1 [Example 104, 1-[4-(2-aminopyrimidin-5-yl)phenyl]-N-[5-(1H-pyrazol-4-yl)pyridin-2-yl]cyclobutanecarboxamide] | 0.155 µM | 0.00195 µM |
| Cn1nccc1-c1ccc(NC(=O)C2(c3ccc(-c4cnc(N)nc4)cc3)CCC2)nc1 [Example 106, 1-[4-(2-aminopyrimidin-5-yl)phenyl]-N-[5-(1-methyl-1H-pyrazol-5-yl)pyridin-2-yl]cyclobutanecarboxamide] | 0.195 µM | 0.003 µM |

| Compound | IC50 [1] | IC50 [2] |
| --- | --- | --- |
| CS(=O)(=O)c1ccc(NC(=O)C2(c3ccc(-c4cnc(N)nc4)cn3)CCC2)cc1 [Example 107, 1-[5-(2-aminopyrimidin-5-yl)pyridin-2-yl]-N-[4-(methylsulfonyl)phenyl]cyclobutane-carboxamide] | 1.1 µM | 0.087 µM |
| N=C(N)NC(=O)c1ccc(NC(=O)C2(c3ccc(-c4cnc(N)nc4)cc3)CCC2)nc1 [Example 108, 6-[({1-[4-(2-aminopyrimidin-5-yl)phenyl]cyclobutyl}carbonyl)amino]-N-carbamimidoylpyridine-3-carboxamide] | 1.9 µM | 0.002 µM |
| Cn1cc(-c2ccc(NC(=O)C3(c4ccc(-c5cnc(N)nc5)cn4)CCC3)nc2)cn1 [Example 109, 1-[5-(2-aminopyrimidin-5-yl)pyridin-2-yl]-N-[5-(1-methyl-1H-pyrazol-4-yl)pyridin-2-yl]cyclobutanecarboxamide] | 2.1 µM | 0.0094 µM |
| Cn1cc(NC(=O)C2(c3ccc(-c4cnc(N)nc4)cc3)CCC2)cn1 [Example 110, 1-[4-(2-aminopyrimidin-5-yl)phenyl]-N-(1-methyl-1H-pyrazol-4-yl)cyclobutanecarboxamide] | 1.1 µM | 0.12 µM |
| COc1cncc(-c2ccc(C(C)(C(=O)Nc3ccc(OCc4ccccn4)cc3)C(C)C)cc2)c1 (stereo not shown) [Example 111] | 2.38 µM | 0.18 µM |
| COc1cncc(-c2ccc(C(C)(C(=O)Nc3ccc(-c4csc(C)n4)cc3)C(C)C)cc2)c1 (stereo not shown) [Example 112, 2-[4-(5-methoxypyridin-3-yl)phenyl]-2,3-dimethyl-N-[4-(2-methyl-1,3-thiazol-4-yl)phenyl]butanamide] | 2.06 µM | 0.23 µM |
| COc1cncc(-c2ccc(C(C)(C(=O)Nc3cccc(-c4csc(C)n4)c3)C(C)C)cc2)c1 (stereo not shown) [Example 113, 2-[4-(5-methoxypyridin-3-yl)phenyl]-2,3-dimethyl-N-[3-(2-methyl-1,3-thiazol-4-yl)phenyl]butanamide] | 10.4 µM | 0.39 µM |
| COc1cncc(-c2ccc(C(C)(C(=O)Nc3ccc(C)nn3)C(C)C)cc2)c1 (stereo not shown) [Example 114] | > 20 µM | 0.29 µM |
| CCCCc1ccc2cc(NC(=O)C(C)(c3ccc(-c4cncc(OC)c4)cc3)C(C)C)ccc2n1 (stereo not shown) [Example 115, N-(2-butylquinolin-6-yl)-2-[4-(5-methoxypyridin-3-yl)phenyl]-2,3-dimethylbutanamide] | 17.1 µM | 0.19 µM |
| COc1ncc(-c2ccc(C(C)(C(=O)Nc3ccc(-c4csc(C)n4)cc3)C(C)C)cc2)cn1 (stereo not shown) [Example 116, 2-[4-(2-methoxypyrimidin-5-yl)phenyl]-2,3-dimethyl-N-[4-(2-methyl-1,3-thiazol-4-yl)phenyl]butanamide] | 10.8 µM | 0.43 µM |
| Cc1nc(-c2ccc(NC(=O)C(C)(c3ccc(-c4cnc(N)nc4)cc3)C(C)C)cc2)cs1 (stereo not shown) [Example 117, 2-[4-(2-aminopyrimidin-5-yl)phenyl]-2,3-dimethyl-N-[4-(2-methyl-1,3-thiazol-4-yl)phenyl]butanamide] | 1.53 µM | 0.0093 µM |
| Cc1nc(-c2ccc(NC(=O)C(C)(c3ccc(-c4cnn(C)c4)cc3)C(C)C)cc2)cs1 (stereo not shown) [Example 118, 2,3-dimethyl-2-[4-(1-methyl-1H-pyrazol-4-yl)phenyl]-N-[4-(2-methyl-1,3-thiazol-4-yl)phenyl]butanamide] | 10.7 µM | 0.26 µM |
| Cc1nc(-c2ccc(NC(=O)C(C)(c3ccc(-c4cnc(N)nc4)cc3)C(C)C)nc2)cs1 (stereo not shown) [Example 119, 2-[4-(2-aminopyrimidin-5-yl)phenyl]-2,3-dimethyl-N-[5-(2-methyl-1,3-thiazol-4-yl)pyridin-2-yl]butanamide] | 0.986 µM | 0.00395 µM |
| Cc1nc(-c2ccc(NC(=O)C3(c4ccc(-c5cnc(N)nc5)cc4)CCCCC3)cc2)cs1 [Example 120, 1-[4-(2-aminopyrimidin-5-yl)phenyl]-N-[4-(2-methyl-1,3-thiazol-4-yl)phenyl]cyclohexane-carboxamide] | 1.27 µM | 0.0115 µM |
| Cc1nc(-c2ccc(NC(=O)C3(c4ccc(-c5cnc(N)nc5)cc4)CCOCC3)cc2)cs1 [Example 121, 4-[4-(2-aminopyrimidin-5-yl)phenyl]-N-[4-(2-methyl-1,3-thiazol-4-yl)phenyl]tetrahydro-2H-pyran-4-carboxamide] | 1.88 µM | 0.019 µM |
| Cc1nc(-c2ccc(NC(=O)C3(c4ccc(-c5cnc(N)nc5)cc4)CCOCC3)nc2)cs1 [Example 122, 4-[4-(2-aminopyrimidin-5-yl)phenyl]-N-[5-(2-methyl-1,3-thiazol-4-yl)pyridin-2-yl]tetrahydro-2H-pyran-4-carboxamide] | 1.04 µM | 0.00953 µM |
